Literature values as cited in patent publication US20230149383A1, “QUINOLINE COMPOUNDS FOR TREATING LUNG, LIVER, AND KIDNEY DISEASES, DISORDERS, OR CONDITIONS” (Aldeyra Therapeutics, Inc., priority 2020, published 2023).

How the values were obtained:
ocular inflammation = settings: Phase 2 and Phase 3 clinical trials; cited from earlier work
minimal change disease = settings: Hogan et al. 2013; cited from earlier work
[1] = tested on: precision-cut liver slices (PCLS); settings: addition of 4-methylpyrazole; cited from earlier work

SMILES: CC(C)(O)c1nc2ccc(Cl)cc2cc1N [reproxalap]
- benefit in ocular inflammation, including dry eye disease and allergic conjunctivitis (ocular inflammation): beneficial

SMILES: C[C@]12C=CC(=O)C=C1CC[C@@H]1[C@@H]2[C@@H](O)C[C@@]2(C)[C@H]1CC[C@]2(O)C(=O)CO [prednisolone]
- complete remission, share of adults with minimal change disease (minimal change disease): over 80%

SMILES: Cc1cn[nH]c1 [4-methylpyrazole]
- ethanol-induced impairments (fatty liver, redox state, albumin secretion) [1]: reversed
